What was measured:
[1] = test system: S129; test: Additional testing of Group 12 herbicides with other HPPD inhibitor herbicides (Table 7), Colby; type: in vivo, Amaranthus sp. (AMAPA); details: for Observed Product 1-(Group 12): Group 12 herbicide alone 15.8 g/ha
Excerpt: (§1) When active ingredients are combined, the activity to be expected (E) for any given active ingredient combination obeys the so-called Colby Formula and can be calculated as follows (Colby, S. R., Calculating synergistic and antagonistic responses of herbicide combination, Weeds, Vol. 15, pages 20-22; 1967): • ppm=milligrams of active ingredient (a.i.) per liter • X=% action by first active ingredient using p ppm of the active ingredient • Y=% action by second active ingredient using q ppm of the active ingredient.
(§2) According to Colby, the expected action of active ingredients A+B using p+q ppm of active ingredient is represented by the following formula:
(§3) [formula] • If the action actually observed (O) is greater than the expected action E then the action of the combination is super-additive, i.e. there is a synergistic effect. In mathematical terms, synergism corresponds to a positive value for the difference of (O-E). In the case of purely complementary addition of activities (expected activity), said difference (O-E) is zero. A negative value of said difference (O-E) signals a loss of activity compared to the expected activity.
(§4) Additional testing within the scope of disclosure was performed using other HPPD inhibitor herbicides and Group 12 herbicides.

[2] = test system: RW478-16; test: as above; type: in vivo, Amaranthus sp. (AMAPA); details: for Observed Product 1-(Group 12): Group 12 herbicide alone 15.8 g/ha
Excerpt: as §1, §2, §3, §4

[3] = test system: Group 27 resistant AMAPA; test: Greenhouse preemergence trial, % control at 29 days after application; type: in vivo, Palmer amaranth
[4] = test system: HPPD resistant AMATA; test: Field trial of dent corn, control 34 days after application; type: in vivo, common waterhemp, Amaranthus rudis Sauer; details: 70 g ai/ha diflufenican
Procedure: Diflufenican, was already very active on HPPD-R AMAPA providing 98% control alone at 35 g ai/ha, the rate used in mixture with MST+BIR making it difficult to determine if there was synergy between the herbicides. Nevertheless, additional data regarding diflufenican and MST+BIR was obtained during field trials of dent corn.
During the field trial, HPPD resistant AMATA (common waterhemp, Amaranthus rudis Sauer) was tested as follows: • 1) 70 g ai/ha diflufenican—providing 55% control • 2) 202 g ai/ha MST+50 g ai/ha BIR—providing 30% control • 3) 70 g ai/ha diflufenican+202 g ai/ha MST+50 g ai/ha BIR—providing 92% control.
The results were collected 34 days after application. The inclusion of a Group 12 herbicide with at least one HPPD-inhibitor, specifically MST+BIR, provided surprising control of HPPD-resistant weeds.

[5] = test system: HPPD-resistant (RW478-16) Amaranthus sp. (AMAPA); test: Pre-emergent synergy test of DFF with MST + BIR (Tables 1-3), Colby; type: in vivo; details: pre-emergence, 528 h, 22 days after treatment, read-out: Activity (% control) (RW478-16)
Excerpt: as §1, §2, §3
(§5) Synergy was further tested for in sensitive (S-129) and HPPD-resistant (RW478-16) Amaranthus sp. (AMAPA) in pre-emergent tests according to the treatments in Table 1 below.
(§6) Dose responses rates were calculated for the treatments at 22 days after treatment which are provided in FIGS. 3 and 4, and further summarized in Table 2.

[6] = test system: sensitive (S-129) Amaranthus sp. (AMAPA); test: as above; type: in vivo; details: pre-emergence, 528 h, 22 days after treatment, read-out: Activity (% control) (S-129)
Excerpt: as §1, §2, §3, §5, §6

[7] = test system: HPPD-resistant (RW478-16) Amaranthus sp. (AMAPA); test: Pre-emergent synergy test of PIC with MST + BIR (Tables 4-6), Colby; type: in vivo; details: 22 days after treatment
Excerpt: as §1, §2, §3, §5
(§7) Similar tests were performed with picolinafen (PIC) and mesotrione+bicyclopyrone (MST+BIR), as summarized by Table 4.

[8] = test system: sensitive (S-129) Amaranthus sp. (AMAPA); test: as above; type: in vivo; details: 22 days after treatment
Excerpt: as §1, §2, §3, §5, §7

[9] = (IFT 12.3) g/ha without Group 12
[10] = (BIR 6.3) g/ha without Group 12
[11] = (MST 25.3) g/ha without Group 12

O=C(Nc1ccc(F)cc1F)c1cccnc1Oc1cccc(C(F)(F)F)c1 [DFF, diflufenican]
Observed Product 1-(Group 12) [1]: 99% | Observed Product 1-(Group 12) [2]: 70% | % control of HPPD-R AMAPA ([3]; alone at 35 g ai/ha): 98% | % control of HPPD resistant AMATA [4]: 55% | inhibition at 1.58 g/ha ([5]; DFF 1.58 g ai/ha alone): 77% | inhibition at 2.11 g/ha ([5]; DFF 2.11 g ai/ha alone): 53% | inhibition at 3.16 g/ha ([5]; DFF 3.16 g ai/ha alone): 45% | inhibition at 7.9 g/ha ([5]; DFF 7.9 g ai/ha alone): 22% | inhibition at 15.8 g/ha ([5]; DFF 15.8 g ai/ha alone): 18% | inhibition at 31.6 g/ha ([5]; DFF 31.6 g ai/ha alone): 3% | inhibition at 1.58 g/ha ([6]; DFF 1.58 g ai/ha alone): 100% | inhibition at 2.11 g/ha ([6]; DFF 2.11 g ai/ha alone): 94% | inhibition at 3.16 g/ha ([6]; DFF 3.16 g ai/ha alone): 72% | inhibition at 7.9 g/ha ([6]; DFF 7.9 g ai/ha alone): 23% | inhibition at 15.8 g/ha ([6]; DFF 15.8 g ai/ha alone): 10% | inhibition at 31.6 g/ha ([6]; DFF 31.6 g ai/ha alone): 13%

CCC(Oc1ccc(F)c(C(F)(F)F)c1)C(=O)NCc1ccccc1 (centres unmarked) [BFB, beflubutamid]
Observed Product 1-(Group 12) [1]: 67% | Observed Product 1-(Group 12) [2]: 37%

O=C1C(Cl)C(CCl)CN1c1cccc(C(F)(F)F)c1 (centres unmarked) [FLU, flurochloridone]
Observed Product 1-(Group 12) [1]: 57% | Observed Product 1-(Group 12) [2]: 27%

CS(=O)(=O)c1cc(C(F)(F)F)ccc1C(=O)c1cnoc1C1CC1 [IFT, isoxaflutole]
Observed Product 2-(HPPDs) [1, 9]: 98% | Observed Product 2-(HPPDs) [2, 9]: 37%

bicyclopyrone [BIR]
Observed Product 2-(HPPDs) [1, 10]: 57% | Observed Product 2-(HPPDs) [2, 10]: 20%

CS(=O)(=O)c1ccc(C(=O)C2C(=O)CCCC2=O)c([N+](=O)[O-])c1 [MST, mesotrione]
Observed Product 2-(HPPDs) [1, 11]: 100% | Observed Product 2-(HPPDs) [2, 11]: 28%

O=C(Nc1ccc(F)cc1)c1cccc(Oc2cccc(C(F)(F)F)c2)n1 [PIC, picolinafen]
Observed Product 1-(Group 12) [1]: 77% | Observed Product 1-(Group 12) [2]: 28% | control of HPPD-Resistant AMAPA ([3]; Picolinafen 35 g ai/ha alone): did not adequately control | Activity (% control) (RW478-16) ([7]; PIC 1.58 g ai/ha alone): 0% | Activity (% control) (RW478-16) ([7]; PIC 2.11 g ai/ha alone): 7% | Activity (% control) (RW478-16) ([7]; PIC 3.16 g ai/ha alone): 10% | Activity (% control) (RW478-16) ([7]; PIC 7.9 g ai/ha alone): 10% | Activity (% control) (RW478-16) ([7]; PIC 15.8 g ai/ha alone): 40% | Activity (% control) (RW478-16) ([7]; PIC 31.6 g ai/ha alone): 53% | Activity (% control) (S-129) ([8]; PIC 1.58 g ai/ha alone): 10% | Activity (% control) (S-129) ([8]; PIC 2.11 g ai/ha alone): 22% | Activity (% control) (S-129) ([8]; PIC 3.16 g ai/ha alone): 17% | Activity (% control) (S-129) ([8]; PIC 7.9 g ai/ha alone): 30% | Activity (% control) (S-129) ([8]; PIC 15.8 g ai/ha alone): 53% | Activity (% control) (S-129) ([8]; PIC 31.6 g ai/ha alone): 72%

— US20260215422A1, “HERBICIDAL COMPOSITIONS” (SYNGENTA CROP PROTECTION AG, priority 2022, published 2026)
